From PubChem BioAssay AID248 (DTP/NCI, 2004)
Values joined by “and” are separate entries in the source; they are usually repeats but may differ in a detail not shown here. Equal entries are not always repeated. Inconclusive results and toxic doses are left out.

System: L1210 leukemia ip in BDF1 mice, survival T/C
Experiment: NCI In Vivo Anticancer Drug Screen. Data for tumor model L1210 Leukemia (intraperitoneal) in B6D2F1 (BDF1) mice
Conditions: higher = longer survival
Summary of the method: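 Transplanted-tumor mice were given test agent; controls received vehicle only. Survival readings from the two groups were divided (treated over control).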

`CN(N=O)C(N)=O` was tested, and the T/C (endpoint: mean survival time, dose: 0.35 mg/kg/injection, schedule: Q01DX Z (sc), vehicle: steriod suspending solution) was 103 % of control, the T/C (endpoint: mean survival time, dose: 0.55 mg/kg/injection, schedule: Q01DX Z (sc), vehicle: steriod suspending solution) was 97 % of control and the T/C (endpoint: mean survival time, dose: 0.83 mg/kg/injection, schedule: Q01DX Z (sc), vehicle: steriod suspending solution) was 100 % of control. The T/C (endpoint: mean survival time, dose: 0.92 mg/kg/injection, schedule: Q01DX Z (oral), vehicle: steriod suspending solution) was 98 % of control, the T/C (endpoint: mean survival time, dose: 1.25 mg/kg/injection, schedule: Q01DX Z (sc), vehicle: steriod suspending solution) was 103 % of control and the T/C (endpoint: mean survival time, dose: 1.38 mg/kg/injection, schedule: Q01DX Z (oral), vehicle: steriod suspending solution) was 106 % of control. For the same compound, the T/C (endpoint: mean survival time, dose: 2.08 mg/kg/injection, schedule: Q01DX Z (oral), vehicle: steriod suspending solution) was 107 % of control, the T/C (endpoint: mean survival time, dose: 2.25 mg/kg/injection, schedule: Q01DX Z (ip), vehicle: carboxymethylcellulose (CMC)) was 112 % of control and the T/C (endpoint: mean survival time, dose: 2.5 mg/kg/injection, schedule: Q01DX Z (sc), vehicle: steriod suspending solution) was 156 % of control. The T/C (endpoint: mean survival time, dose: 3.12 mg/kg/injection, schedule: Q01DX Z (oral), vehicle: steriod suspending solution) was 114 % of control, the T/C (endpoint: mean survival time, dose: 3.6 mg/kg/injection, schedule: Q01DX Z (ip), vehicle: carboxymethylcellulose (CMC)) was 109 % of control and the T/C (endpoint: mean survival time, dose: 4.5 mg/kg/injection, schedule: Q01DX Z (ip), vehicle: carboxymethylcellulose (CMC)) was 109 % of control and 120 % of control. For the same compound, the T/C (endpoint: mean survival time, dose: 5.0 mg/kg/injection, schedule: Q01DX009 (ip), vehicle: saline) was 118 % of control and 123 % of control, the T/C (endpoint: mean survival time, dose: 5.0 mg/kg/injection, schedule: Q01DX Z (sc), vehicle: steriod suspending solution) was 160 % of control and the T/C (endpoint: mean survival time, dose: 5.7 mg/kg/injection, schedule: Q02DX010 (ip), vehicle: carboxymethylcellulose (CMC)) was 121 % of control. The T/C (endpoint: mean survival time, dose: 6.0 mg/kg/injection, schedule: Q01DX Z (ip), vehicle: carboxymethylcellulose (CMC)) was 119 % of control, the T/C (endpoint: mean survival time, dose: 6.2 mg/kg/injection, schedule: Q01DX Z (sc), vehicle: saline) was 106 % of control and 113 % of control and the T/C (endpoint: mean survival time, dose: 6.25 mg/kg/injection, schedule: Q01DX Z (oral), vehicle: steriod suspending solution) was 101 % of control. For the same compound, the T/C (endpoint: mean survival time, dose: 6.8 mg/kg/injection, schedule: Q02DX010 (ip), vehicle: saline) was 122 % of control, the T/C (endpoint: mean survival time, dose: 8.0 mg/kg/injection, schedule: Q01DX Z (ip), vehicle: saline) was 162 % of control and the T/C (endpoint: mean survival time, dose: 8.0 mg/kg/injection, schedule: Q01DX Z (sc), vehicle: other) was 122 % of control. For the same compound, the T/C (endpoint: mean survival time, dose: 8.0 mg/kg/injection, schedule: Q01DX Z (sc), vehicle: saline) was 115 % of control, the T/C (endpoint: mean survival time, dose: 9.0 mg/kg/injection, schedule: Q01DX Z (sc), vehicle: saline) was 103 % of control and the T/C (endpoint: mean survival time, dose: 9.0 mg/kg/injection, schedule: Q02DX010 (ip), vehicle: carboxymethylcellulose (CMC)) was 122 % of control. The T/C (endpoint: mean survival time, dose: 10.0 mg/kg/injection, schedule: Q01DX Z (sc), vehicle: steriod suspending solution) was 156 % of control, the T/C (endpoint: mean survival time, dose: 12.0 mg/kg/injection, schedule: Q01DX Z (ip), vehicle: saline) was 184 % of control and the T/C (endpoint: mean survival time, dose: 12.5 mg/kg/injection, schedule: Q01DX Z (oral), vehicle: steriod suspending solution) was 157 % of control. The T/C (endpoint: mean survival time, dose: 13.0 mg/kg/injection, schedule: Q02DX010 (ip), vehicle: saline) was 154 % of control, the T/C (endpoint: mean survival time, dose: 18.0 mg/kg/injection, schedule: Q01DX001 (ip), vehicle: saline) was 124 % of control and the T/C (endpoint: mean survival time, dose: 18.0 mg/kg/injection, schedule: Q01DX Z (ip), vehicle: carboxymethylcellulose (CMC)) was 177 % of control. The T/C (endpoint: mean survival time, dose: 18.0 mg/kg/injection, schedule: Q01DX Z (ip), vehicle: saline) was 187 % of control, the T/C (endpoint: mean survival time, dose: 18.0 mg/kg/injection, schedule: Q01DX Z (sc), vehicle: other) was 188 % of control and the T/C (endpoint: mean survival time, dose: 20.0 mg/kg/injection, schedule: Q01DX009 (ip), vehicle: saline) was 158 % of control and 174 % of control. The T/C (endpoint: mean survival time, dose: 20.0 mg/kg/injection, schedule: Q02DX010 (ip), vehicle: other) was 159 % of control, the T/C (endpoint: mean survival time, dose: 20.0 mg/kg/injection, schedule: Q02DX010 (ip), vehicle: saline) was 160 % of control and 166 % of control and the T/C (endpoint: mean survival time, dose: 22.5 mg/kg/injection, schedule: Q02DX010 (ip), vehicle: saline) was 152 % of control. For the same compound, the T/C (endpoint: mean survival time, dose: 24.0 mg/kg/injection, schedule: Q02DX010 (ip), vehicle: saline) was 167 % of control, the T/C (endpoint: mean survival time, dose: 24.8 mg/kg/injection, schedule: Q01DX Z (oral), vehicle: saline) was 112 % of control and the T/C (endpoint: mean survival time, dose: 27.0 mg/kg/injection, schedule: Q01DX Z (ip), vehicle: saline) was 115 % of control. For the same compound, the T/C (endpoint: mean survival time, dose: 30.0 mg/kg/injection, schedule: Q02DX010 (ip), vehicle: other) was 208 % of control, the T/C (endpoint: mean survival time, dose: 30.0 mg/kg/injection, schedule: Q02DX010 (ip), vehicle: saline) was 154 % of control and 177 % of control and the T/C (endpoint: mean survival time, dose: 36.0 mg/kg/injection, schedule: Q01DX Z (ip), vehicle: carboxymethylcellulose (CMC)) was 122 % of control. The T/C (endpoint: mean survival time, dose: 36.0 mg/kg/injection, schedule: Q02DX010 (ip), vehicle: saline) was 211 % of control, the T/C (endpoint: mean survival time, dose: 40.0 mg/kg/injection, schedule: Q01DX009 (ip), vehicle: saline) was 118 % of control and 88 % of control and the T/C (endpoint: mean survival time, dose: 40.0 mg/kg/injection, schedule: Q01DX Z (ip), vehicle: saline) was 103 % of control. The T/C (endpoint: mean survival time, dose: 45.0 mg/kg/injection, schedule: Q01DX Z (ip), vehicle: carboxymethylcellulose (CMC)) was 94 % of control, the T/C (endpoint: mean survival time, dose: 45.0 mg/kg/injection, schedule: Q02DX010 (ip), vehicle: saline) was 108 % of control and the T/C (endpoint: mean survival time, dose: 56.0 mg/kg/injection, schedule: Q01DX Z (oral), vehicle: saline) was 113 % of control and 114 % of control. For the same compound, the T/C (endpoint: mean survival time, dose: 67.0 mg/kg/injection, schedule: Q02DX010 (ip), vehicle: other) was 101 % of control, the T/C (endpoint: mean survival time, dose: 67.0 mg/kg/injection, schedule: Q02DX010 (ip), vehicle: saline) was 74 % of control and the T/C (endpoint: mean survival time, dose: 72.0 mg/kg/injection, schedule: Q01DX001 (ip), vehicle: saline) was 188 % of control. For the same compound, the T/C (endpoint: mean survival time, dose: 80.0 mg/kg/injection, schedule: Q01DX Z (sc), vehicle: steriod suspending solution) was 101 % of control, the T/C (endpoint: mean survival time, dose: 84.0 mg/kg/injection, schedule: Q01DX Z (oral), vehicle: saline) was 101 % of control and the T/C (endpoint: mean survival time, dose: 160.0 mg/kg/injection, schedule: Q01DX Z (sc), vehicle: steriod suspending solution) was 88 % of control. For the same compound, the T/C (endpoint: median survival time, dose: 0.75 mg/kg/injection, schedule: Q01DX009 (ip), vehicle: saline) was 95 % of control, the T/C (endpoint: median survival time, dose: 1.5 mg/kg/injection, schedule: Q01DX009 (ip), vehicle: saline) was 100 % of control and 110 % of control and the T/C (endpoint: median survival time, dose: 3.0 mg/kg/injection, schedule: Q01DX009 (ip), vehicle: saline) was 100 % of control and 115 % of control. For the same compound, the T/C (endpoint: median survival time, dose: 5.0 mg/kg/injection, schedule: Q01DX009 (ip), vehicle: saline) was 121 % of control, the T/C (endpoint: median survival time, dose: 6.3 mg/kg/injection, schedule: Q01DX017 (ip), vehicle: saline) was 122 % of control and the T/C (endpoint: median survival time, dose: 10.0 mg/kg/injection, schedule: Q01DX009 (ip), vehicle: saline) was 155 % of control. For the same compound, the T/C (endpoint: median survival time, dose: 12.0 mg/kg/injection, schedule: Q01DX009 (ip), vehicle: saline) was 172 % of control, the T/C (endpoint: median survival time, dose: 12.5 mg/kg/injection, schedule: Q01DX017 (ip), vehicle: saline) was 183 % of control and 194 % of control and the T/C (endpoint: median survival time, dose: 20.0 mg/kg/injection, schedule: Q01DX009 (ip), vehicle: saline) was 233 % of control and 242 % of control. For the same compound, the T/C (endpoint: median survival time, dose: 24.0 mg/kg/injection, schedule: Q01DX009 (ip), vehicle: saline) was 190 % of control and the T/C (endpoint: median survival time, dose: 40.0 mg/kg/injection, schedule: Q01DX009 (ip), vehicle: saline) was 100 % of control and 121 % of control.
